Data published in patent publication US20240207258A1, “HETEROCYCLIC PDK1 INHIBITORS FOR USE TO TREAT CANCER” (Viracta Therapeutics, Inc., priority 2015, published 2024).
pEC50: −log10 of the molar value. Like-named read-outs stand apart in the source and are kept apart here.

Columns and labels:
A20 = assay: MTS cell proliferation assay, A20; type: cell-based, murine; conditions: Mus musculus; A20, 72 hr
Description: (§1) Cell proliferation was measured using the CellTiter 96 Aqueous Non-Radioactive Cell Proliferation Assay (Promega). The CellTiter 96® AQueous Assay is composed of solutions of a tetrazolium compound [3-(4,5-dimethylthiazol-2-yl)-5-(3-carboxymethoxyphenyl)-2-(4-sulfophenyl)-2H-tetrazolium, inner salt; MTS] and an electron coupling reagent (phenazine methosulfate) PMS. MTS is bioreduced by cells into a formazan product that is soluble in tissue culture medium. The absorbance of the formazan product at 490 nm can be measured directly from assay plates without additional processing. The quantity of formazan product as measured by the amount of 490 nm absorbance is directly proportional to the number of living cells in culture. Cells were seeded into 96-well or 384-well clear plates in a volume of 200 μL (96-well) or 50 μL (384-well) at optimized densities ranging from 1,000 to 40,000 cells per well for 96-well plates or 1,200 to 25,000 cells per well for 384-well plates depending on cell-line. After 4-6 hr recovery, serially diluted compounds in DMSO were added to the cells using (0.1% v/v final DMSO concentration). Cells were then grown at 37° C. in a humidified incubator with 5% CO2 for 72 hr. A 20:1 [3-(4,5-dimethylthiazol-2-yl)-5-(3-carboxymethoxyphenyl)-2-(4-sulfophenyl)-2H-tetrazolium](MTS):phenazine methosulfate (PMS) solution in DPBS was made immediately before use, added to each well, and cells were incubated for 1.5 hr at 37° C. The absorbance at 490 nm was then measured using a platereader. Absorbance values were normalized as percent of control (cells incubated in the presence of 0.1% v/v DMSO). Sigmoidal dose-response curves were plotted using log(inhibitor) vs. response—Variable slope (four parameters) model with a top value constrained to 100% (GraphPad Prism version 6.00 for Windows, GraphPad Software, La Jolla California USA). […] Curves for compounds that reached a plateau were matched exactly to the measurement points. […] To determine potential of compounds of the invention to affect viability of hematological cancers, cell lines representing various tumor types were selected and tested. Human cell lines tested were: MOLM-13 (acute myeloid leukemia (AML)), MV4-11 (AML), U-2932 (ABC-diffuse large B cell lymphoma), U-937 (histiocytic lymphoma), U-266 (multiple myeloma), RPMI-8226 (multiple myeloma), CMK (megakaryoblastic cell line), SU-DHL-4 (GCB-diffuse large B cell lymphoma), KG1 (AML), Mec-1 (chronic B-cell leukemia), MOLM-16 (AML), Jeko (B-cell lymphoma), WSU-DLCL2 (B-cell lymphoma), JJN3 (plasma cell leukemia), SU-DHL-6 (GCB-diffuse large B cell lymphoma), and Z-138 (mantle cell lymphoma). In addition, two murine cell lines were tested: A20 […].

CMK = assay: MTS cell proliferation assay, CMK; type: cell-based; conditions: Homo sapiens, 72 hr
Description: (§2) Cell proliferation was measured using the CellTiter 96 Aqueous Non-Radioactive Cell Proliferation Assay (Promega). The CellTiter 96® AQueous Assay is composed of solutions of a tetrazolium compound [3-(4,5-dimethylthiazol-2-yl)-5-(3-carboxymethoxyphenyl)-2-(4-sulfophenyl)-2H-tetrazolium, inner salt; MTS] and an electron coupling reagent (phenazine methosulfate) PMS. MTS is bioreduced by cells into a formazan product that is soluble in tissue culture medium. The absorbance of the formazan product at 490 nm can be measured directly from assay plates without additional processing. The quantity of formazan product as measured by the amount of 490 nm absorbance is directly proportional to the number of living cells in culture. Cells were seeded into 96-well or 384-well clear plates in a volume of 200 μL (96-well) or 50 μL (384-well) at optimized densities ranging from 1,000 to 40,000 cells per well for 96-well plates or 1,200 to 25,000 cells per well for 384-well plates depending on cell-line. After 4-6 hr recovery, serially diluted compounds in DMSO were added to the cells using (0.1% v/v final DMSO concentration). Cells were then grown at 37° C. in a humidified incubator with 5% CO2 for 72 hr. A 20:1 [3-(4,5-dimethylthiazol-2-yl)-5-(3-carboxymethoxyphenyl)-2-(4-sulfophenyl)-2H-tetrazolium](MTS):phenazine methosulfate (PMS) solution in DPBS was made immediately before use, added to each well, and cells were incubated for 1.5 hr at 37° C. The absorbance at 490 nm was then measured using a platereader. Absorbance values were normalized as percent of control (cells incubated in the presence of 0.1% v/v DMSO). Sigmoidal dose-response curves were plotted using log(inhibitor) vs. response—Variable slope (four parameters) model with a top value constrained to 100% (GraphPad Prism version 6.00 for Windows, GraphPad Software, La Jolla California USA). […] Curves for compounds that reached a plateau were matched exactly to the measurement points. […]

MV4-11 = assay: MTS cell proliferation assay, MV4-11; type: cell-based, human; conditions: Homo sapiens; MV4-11, 72 hr; read-out: MTS proliferation assay
Description: Cell proliferation was measured using the CellTiter 96 Aqueous Non-Radioactive Cell Proliferation Assay (Promega). […] MTS is bioreduced by cells into a formazan product that is soluble in tissue culture medium. The absorbance of the formazan product at 490 nm can be measured directly from assay plates without additional processing. The quantity of formazan product as measured by the amount of 490 nm absorbance is directly proportional to the number of living cells in culture. Cells were seeded into 96-well or 384-well clear plates in a volume of 200 μL (96-well) or 50 μL (384-well) at optimized densities ranging from 1,000 to 40,000 cells per well for 96-well plates or 1,200 to 25,000 cells per well for 384-well plates depending on cell-line. After 4-6 hr recovery, serially diluted compounds in DMSO were added to the cells using (0.1% v/v final DMSO concentration). Cells were then grown at 37° C. in a humidified incubator with 5% CO2 for 72 hr. A 20:1 [3-(4,5-dimethylthiazol-2-yl)-5-(3-carboxymethoxyphenyl)-2-(4-sulfophenyl)-2H-tetrazolium](MTS):phenazine methosulfate (PMS) solution in DPBS was made immediately before use, added to each well, and cells were incubated for 1.5 hr at 37° C. The absorbance at 490 nm was then measured using a platereader. Absorbance values were normalized as percent of control (cells incubated in the presence of 0.1% v/v DMSO). Sigmoidal dose-response curves were plotted using log(inhibitor) vs. response—Variable slope (four parameters) model with a top value constrained to 100% (GraphPad Prism version 6.00 for Windows, GraphPad Software, La Jolla California USA). […] To determine potential of compounds of the invention to affect viability of hematological cancers, cell lines representing various tumor types were selected and tested. […] In addition, two murine cell lines were tested: A20 […].

U-937 = assay: MTS cell proliferation assay, U-937; type: cell-based; conditions: Homo sapiens; U-937, 72 hr
Description: as §2

KG1 = assay: MTS cell proliferation assay, KG1; type: cell-based; conditions: Homo sapiens, KG-1; KG1, 72 hr
Description: as §2

[1] = biological target: T1, Full-length phosphorylated PDK1 (Homo sapiens, UniProt O15530); assay: FRET-based PIF-tide binding assay; conditions: 10 nM compound where stated, FIG. 13D
T1 sequence (O15530 1-556): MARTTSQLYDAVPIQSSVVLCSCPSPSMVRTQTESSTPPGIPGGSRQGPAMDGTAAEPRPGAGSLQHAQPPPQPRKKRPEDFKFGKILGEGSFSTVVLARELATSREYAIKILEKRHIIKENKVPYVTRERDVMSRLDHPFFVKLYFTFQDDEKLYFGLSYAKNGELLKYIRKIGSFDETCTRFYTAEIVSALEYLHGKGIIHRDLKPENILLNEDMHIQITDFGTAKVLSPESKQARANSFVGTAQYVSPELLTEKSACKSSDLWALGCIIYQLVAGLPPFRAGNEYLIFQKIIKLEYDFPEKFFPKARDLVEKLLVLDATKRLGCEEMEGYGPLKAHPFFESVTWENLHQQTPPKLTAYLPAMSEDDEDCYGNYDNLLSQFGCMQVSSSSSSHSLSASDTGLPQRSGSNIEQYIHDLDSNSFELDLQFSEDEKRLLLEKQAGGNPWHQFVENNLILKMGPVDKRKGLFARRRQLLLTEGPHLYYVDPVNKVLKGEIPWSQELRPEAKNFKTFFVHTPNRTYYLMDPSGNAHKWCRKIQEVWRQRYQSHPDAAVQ

[2] = test system: hematologic tumor cell lines; assay: MTS cell proliferation assay, panel of hematologic cancer cell lines; type: cell-based
Description: as §1

[3] = range against the various cell lines of Table 1, read-out: inhibition of cell proliferation EC50

Row | Compound | pEC50 (A20) | pEC50 (CMK) | pEC50 (MV4-11) | pEC50 (U-937) | pEC50 (KG1) | FRET between PDK1 and PIF-tide [1] | pEC50 [2, 3] | fold more potent than GSK2334470 in viability assays ([2]; 72 hours viability assays) | number of cell lines with growth inhibition at concentrations less than 500 nM ([2]; out of 16 cell lines) | pEC50 ([2]; panel of more than 20 cell lines derived from hematologic cancers, read-out: anti-proliferative activity EC50) | pEC50 ([2]; range over 16 cell lines, FIG. 3, read-out: potency in the cell proliferation assay (EC50))
1 | C[C@H](NC(=O)c1nc(C#N)cnc1NCc1ccc(-c2cnc3[nH]nc(N)c3n2)cc1)c1ccc(F)c(F)c1 [Compound 1, 3-[4-(3-Amino-1H-pyrazolo[3,4-b]pyrazin-5-yl)-benzylamino]-6-cyano-pyrazine-2-carboxylic acid [1-(3,4-difluoro-phenyl)-ethyl]-amide] | 6.81 | 6.65 | 8.30 | 6.91 | 6.76 | near complete inhibition | 6.07 to 8.52 | – | – | – | –
2 | CNc1n[nH]c2ncc(-c3ccc(CNc4ncc(C#N)nc4C(=O)N[C@@H](C)c4ccc(F)c(F)c4)cc3)cc12 [Compound 2, 6-Cyano-3-[4-(3-methylamino-1H-pyrazolo[3,4-b]pyridin-5-yl)-benzylamino]-pyrazine-2-carboxylic acid [1-(3,4-difluoro-phenyl)-ethyl]-amide] | 6.94 | 6.74 | 8.15 | 7.13 | 6.71 | near complete inhibition | 6.07 to 8.52 | at least 10 fold | 15 | 6.05 to 8.52 | > 6.00
